According to patent publication US10414740B2, “Glutaminase inhibitors and method of use” (Agios Pharmaceuticals, Inc., priority 2012, dated 2019):
pIC50: −log10 of the molar value.

The molecules below were run against T1, glutaminase (GAC) (Homo sapiens, UniProt O94925) (assay: glutaminase coupled endpoint assay (Example A)). Conditions: inhibition of glutaminase; IC50 tested in an assay of Example A or Example B.
T1 sequence (O94925 55-598 isoform O94925-3 limits assumed): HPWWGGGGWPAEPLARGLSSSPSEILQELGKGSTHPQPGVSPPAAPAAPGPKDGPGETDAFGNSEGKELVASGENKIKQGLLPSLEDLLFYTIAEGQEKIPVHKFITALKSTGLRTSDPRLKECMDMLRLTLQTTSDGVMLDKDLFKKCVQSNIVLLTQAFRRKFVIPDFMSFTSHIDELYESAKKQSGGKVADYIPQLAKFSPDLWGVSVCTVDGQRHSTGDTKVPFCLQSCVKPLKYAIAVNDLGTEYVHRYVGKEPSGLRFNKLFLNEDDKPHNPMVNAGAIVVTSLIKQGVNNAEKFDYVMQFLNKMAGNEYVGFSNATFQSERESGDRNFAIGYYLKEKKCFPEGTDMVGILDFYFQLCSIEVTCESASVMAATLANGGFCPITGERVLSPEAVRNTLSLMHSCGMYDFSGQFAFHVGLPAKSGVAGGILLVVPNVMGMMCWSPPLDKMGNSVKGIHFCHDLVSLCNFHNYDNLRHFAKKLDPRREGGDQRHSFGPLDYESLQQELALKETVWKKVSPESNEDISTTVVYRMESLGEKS
Format: biochemical
Procedure: In this example, the enzymatic activity of glutaminase is measured through a coupled endpoint assay. […] The glutamate produced is converted to 2-OG by a kinetic excess of glutamate dehydrogenase. […] However, a kinetic excess of the third coupling enzyme, diaphorase, recycles NAD from NADH to keep the NAD concentration constant during the timecourse of the assay. Diaphorase, also supplied in kinetic excess, oxidizes NADH produced by GDH back to NAD with the concomitant reduction of rezasurin to the highly fluorescent resorufin. […] A reduction in the signal indicates inhibition of some component of the coupled enzyme system. Prospective hits are counterscreened against GDH/diaphorase alone to remove hits to the coupling enzyme system in a second assay.
2. […] Add 1 μl a compound in 100% DMSO 2. Add 40 μl of Enzyme Mix and incubate for 60 minute at room temperature 3. Add 10 μl of Substrate Mix to start reaction 4.

SMILES	pIC50
COc1ccccc1CC(=O)Nc1nnc(CCCCc2nnc(NC(=O)Cc3ccccc3OC)s2)s1 [Compound 132, N,N′-(5,5′-(butane-1,4-diyl)bis(1,3,4-thiadiazole-5,2-diyl))bis(2-(2-methoxyphenyl)acetamide)]	> 7.00
Cc1cc(CC(=O)Nc2nnc(CCCCc3nnc(NC(=O)Cc4cc(C)no4)s3)s2)on1 [Compound 42, N,N′-(5,5′-(butane-1,4-diyl)bis(1,3,4-thiadiazole-5,2-diyl))bis(2-(3-methylisoxazol-5-yl)acetamide)]	6.30 to 7.00
O=C(Cc1ccccn1)Nc1nnc(CCS(=O)(=O)CCc2nnc(NC(=O)Cc3ccccn3)s2)s1 [Compound 13, N,N′-(5,5′-(sulfonylbis(ethane-2,1-diyl))bis(1,3,4-thiadiazole-5,2-diyl))bis(2-(pyridin-2-yl)acetamide)]	> 7.00
O=C(Cc1ccccc1)Nc1nnc(CCS(=O)(=O)CCc2nnc(NC(=O)Cc3ccccc3)s2)s1 [Compound 4, N,N′-(5,5′-(sulfonylbis(ethane-2,1-diyl))bis(1,3,4-thiadiazole-5,2-diyl))bis(2-phenylacetamide)]	> 7.00
O=C(Cc1ccc(Cl)cc1)Nc1nnc(CCCCc2nnc(NC(=O)Cc3ccc(Cl)cc3)s2)s1 [Compound 113, N,N′-(5,5′-(butane-1,4-diyl)bis(1,3,4-thiadiazole-5,2-diyl))bis(2-(4-chlorophenyl)acetamide)]	6.30 to 7.00
NCCOc1ccc(CC(=O)Nc2nnc(CCS(=O)(=O)CCc3nnc(NC(=O)Cc4ccccc4)s3)s2)cc1 [Compound 29, 2-(4-(2-aminoethoxy)phenyl)-N-(5-(2-((2-(5-(2-phenylacetamido)-1,3,4-thiadiazol-2-yl)ethyl)sulfonyl)ethyl)-1,3,4-thiadiazol-2-yl)acetamide]	> 7.00
CC(CC(=O)c1ccccc1)C(=O)Nc1nnc(CCCCc2nnc(NC(=O)C(C)CC(=O)c3ccccc3)s2)s1 (stereo not drawn) [Compound 62, N,N′-(5,5′-(butane-1,4-diyl)bis(1,3,4-thiadiazole-5,2-diyl))bis(2-methyl-4-oxo-4-phenylbutanamide)]	6.30 to 7.00
O=C(Cc1cccc(C(F)(F)F)c1F)Nc1nnc(CCCCc2nnc(NC(=O)Cc3cccc(C(F)(F)F)c3F)s2)s1 [Compound 92]	5.00 to 6.00
CC(C)(C)CC(=O)Nc1nnc(CCCCc2nnc(NC(=O)CC(C)(C)C)s2)s1 [Compound 96]	5.00 to 6.00
O=C(Cc1c[nH]c2cccnc12)Nc1nnc(CCCCc2nnc(NC(=O)Cc3c[nH]c4cccnc34)s2)s1 [Compound 127, N,N′-(5,5′-(butane-1,4-diyl)bis(1,3,4-thiadiazole-5,2-diyl))bis(2-(1H-pyrrolo[3,2-b]pyridin-3-yl)acetamide)]	> 7.00
O=C(Cc1ccccc1)Nc1nnc(CCCSCc2nnc(NC(=O)Cc3ccccc3)s2)s1 [Compound 6, 2-Phenyl-N-(5-(3-(((5-(2-phenylacetamido)-1,3,4-thiadiazol-2-yl)methyl)thio)propyl)-1,3,4-thiadiazol-2-yl)acetamide]	6.00 to 6.30
Cc1cccc(OCC(=O)Nc2nnc(CCCCc3nnc(NC(=O)COc4cccc(C)c4)s3)s2)c1 [Compound 104]	5.00 to 6.00
CC(=O)Nc1nnc(CCCCc2nnc(NC(=O)c3ccc4[nH]c(C)nc4c3)s2)s1 [Compound 128, N-(5-(4-(5-acetamido-1,3,4-thiadiazol-2-yl)butyl)-1,3,4-thiadiazol-2-yl)-2-methyl-1H-benzo[d]imidazole-5-carboxamide]	> 7.00
O=C(Cc1ccccc1)Nc1nnc(CCS(=O)(=O)Cc2nnc(NC(=O)Cc3ccccc3)s2)s1 [Compound 56]	6.30 to 7.00
O=C(Cc1ccc2c(c1)OCO2)Nc1nnc(CCCCc2nnc(NC(=O)Cc3ccc4c(c3)OCO4)s2)s1 [Compound 55, N,N′-(5,5′-(butane-1,4-diyl)bis(1,3,4-thiadiazole-5,2-diyl))bis(2-(benzo[d][1,3]dioxol-5-yl)acetamide)]	> 7.00
O=C(Cc1c[nH]c2ccccc12)Nc1nnc(CCCCc2nnc(NC(=O)Cc3c[nH]c4ccccc34)s2)s1 [Compound 87, N,N′-(5,5′-(butane-1,4-diyl)bis(1,3,4-thiadiazole-5,2-diyl))bis(2-(1H-indol-3-yl)acetamide)]	> 7.00
O=C(Cc1ccccc1)Nc1nnc(CSCc2nnc(NC(=O)Cc3ccccc3)s2)s1 [Compound 32]	5.00 to 6.00
O=C(Cc1noc2ccccc12)Nc1nnc(CCCCc2nnc(NC(=O)Cc3noc4ccccc34)s2)s1 [Compound 60, N,N′-(5,5′-(butane-1,4-diyl)bis(1,3,4-thiadiazole-5,2-diyl))bis(2-(benzo[d]isoxazol-3-yl)acetamide)]	> 7.00
O=C(Cc1cccc2[nH]ccc12)Nc1nnc(CCCCc2nnc(NC(=O)Cc3cccc4[nH]ccc34)s2)s1 [Compound 123, N,N′-(5,5′-(butane-1,4-diyl)bis(1,3,4-thiadiazole-5,2-diyl))bis(2-(1H-indol-4-yl)acetamide)]	> 7.00

Other lines, results leading:

pIC50	SMILES
6.30 to 7.00	O=C(Cc1ccccn1)Nc1nnc(CCCCCc2nnc(NC(=O)Cc3ccccn3)s2)s1 [Compound 11, N,N′-(5,5′-(pentane-1,5-diyl)bis(1,3,4-thiadiazole-5,2-diyl))bis(2-(pyridin-2-yl)acetamide)]
6.30 to 7.00	CC(C)COC(=O)Nc1nnc(CCS(=O)(=O)CCc2nnc(NC(=O)OCC(C)C)s2)s1 [Compound 22, Diisobutyl (5,5′-(sulfonylbis(ethane-2,1-diyl))bis(1,3,4-thiadiazole-5,2-diyl))dicarbamate]
> 7.00	O=C(Cc1ccccc1)Nc1nnc(CCSCc2nnc(NC(=O)Cc3ccccc3)s2)s1 [Compound 48]
6.00 to 6.30	CC(C)(C(=O)Nc1nnc(CCCCc2nnc(NC(=O)C(C)(C)c3ccccc3)s2)s1)c1ccccc1 [Compound 88, N,N′-(5,5′-(butane-1,4-diyl)bis(1,3,4-thiadiazole-5,2-diyl))bis(2-methyl-2-phenylpropanamide)]
> 7.00	O=C(Nc1nnc(CCS(=O)(=O)CCc2nnc(NC(=O)OCc3ccccc3)s2)s1)OCc1ccccc1 [Compound 19, Dibenzyl (5,5′-(sulfonylbis(ethane-2,1-diyl))bis(1,3,4-thiadiazole-5,2-diyl))dicarbamate]
> 7.00	Cn1cc(CC(=O)Nc2nnc(CCCCc3nnc(NC(=O)Cc4cn(C)c5ccccc45)s3)s2)c2ccccc21 [Compound 130, N,N′-(5,5′-(butane-1,4-diyl)bis(1,3,4-thiadiazole-5,2-diyl))bis(2-(1-methyl-1H-indol-3-yl)acetamide)]
> 7.00	O=C(CCc1ccccc1)Nc1nnc(CCS(=O)(=O)CCc2nnc(NC(=O)CCc3ccccc3)s2)s1 [Compound 21, N,N′-(5,5′-(2,2′-sulfonylbis(ethane-2,1-diyl))bis(1,3,4-thiadiazole-5,2-diyl))bis(3-phenylpropanamide)]
5.00 to 6.00	Cc1ccc(C)c(OCC(=O)Nc2nnc(CCCCc3nnc(NC(=O)COc4cc(C)ccc4C)s3)s2)c1 [Compound 67]
6.30 to 7.00	O=C(Cc1cccnc1)Nc1nnc(CCCc2nnc(NC(=O)Cc3cccnc3)s2)s1 [Compound 26, N,N′-(5,5′-(propane-1,3-diyl)bis(1,3,4-thiadiazole-5,2-diyl))bis(2-(pyridin-3-yl)acetamide)]
> 7.00	Cc1[nH]c2ccccc2c1CC(=O)Nc1nnc(CCCCc2nnc(NC(=O)Cc3c(C)[nH]c4ccccc34)s2)s1 [Compound 116, N,N′-(5,5′-(butane-1,4-diyl)bis(1,3,4-thiadiazole-5,2-diyl))bis(2-(2-methyl-1H-indol-3-yl)acetamide)]
> 7.00	COc1ccc(CC(=O)Nc2nnc(CCS(=O)(=O)CCc3nnc(NC(=O)Cc4ccc(OC)cc4)s3)s2)cc1 [Compound 31, N,N′-(5,5′-(2,2′-sulfonylbis(ethane-2,1-diyl))bis(1,3,4-thiadiazole-5,2-diyl))bis(2-(4-methoxyphenyl)acetamide)]
6.30 to 7.00	O=C(CC1CCCCC1)Nc1nnc(CCCCc2nnc(NC(=O)CC3CCCCC3)s2)s1 [Compound 121, N,N′-(5,5′-(butane-1,4-diyl)bis(1,3,4-thiadiazole-5,2-diyl))bis(2-cyclohexylacetamide)]
5.00 to 6.00	CN(C(=O)Cc1ccccc1)c1nnc(CCCCc2nnc(N(C)C(=O)Cc3ccccc3)s2)s1 [Compound 97]
> 7.00	O=C(Cc1c[nH]c2cnccc12)Nc1nnc(CCCCc2nnc(NC(=O)Cc3c[nH]c4cnccc34)s2)s1 [Compound 125, N,N′-(5,5′-(butane-1,4-diyl)bis(1,3,4-thiadiazole-5,2-diyl))bis(2-(1H-pyrrolo[2,3-c]pyridin-3-yl)acetamide)]
5.00 to 6.00	Cc1ccc(OCC(=O)Nc2nnc(CCCCc3nnc(NC(=O)COc4ccc(C)cc4C)s3)s2)c(C)c1 [Compound 65]
5.00 to 6.00	O=C(CCN1CCCCC1)Nc1nnc(CCCCc2nnc(NC(=O)CCN3CCCCC3)s2)s1 [Compound 59]
6.30 to 7.00	CC(=O)Nc1nnc(CCCCc2nnc(NC(=O)Cc3ccccc3)s2)s1 [Compound 98]
